Results as given in ChEMBL document CHEMBL5715937, “In vitro activity of Bcr-Abl inhibitors AMN107 and BMS-354825 against clinically relevant imatinib-resistant Abl kinase domain mutants” (Cancer Res, 2005).
The source made the active and inactive calls. The rule behind the calls is not given here.

Tests used:
[1] = Inhibition of BCR-ABL M244V mutant (unknown origin) expressed in mouse BaF3 cells assessed as inhibition of cell growth incubated for 72 hrs by […] CellTiter96 viability analysis; conditions: for IC50: BaF3, 72 h
[2] = Inhibition of BCR-ABL G250E mutant (unknown origin) expressed in mouse BaF3 cells assessed as inhibition of cell growth incubated for 72 hrs by […] CellTiter96 viability analysis; conditions: for IC50: BaF3, 72 h
[3] = Inhibition of BCR-ABL Q252H mutant (unknown origin) expressed in mouse BaF3 cells assessed as inhibition of cell growth incubated for 72 hrs by […] CellTiter96 viability analysis; conditions: for IC50: BaF3, 72 h
[4] = Inhibition of BCR-ABL Y253F mutant (unknown origin) expressed in mouse BaF3 cells assessed as inhibition of cell growth incubated for 72 hrs by […] CellTiter96 viability analysis; conditions: for IC50: BaF3, 72 h
[5] = Inhibition of BCR-ABL Y253H mutant (unknown origin) expressed in mouse BaF3 cells assessed as inhibition of cell growth incubated for 72 hrs by […] CellTiter96 viability analysis; conditions: for IC50: BaF3, 72 h
[6] = Inhibition of BCR-ABL E255K mutant (unknown origin) expressed in mouse BaF3 cells assessed as inhibition of cell growth incubated for 72 hrs by […] CellTiter96 viability analysis; conditions: for IC50: BaF3, 72 h
[7] = Inhibition of BCR-ABL E255V mutant (unknown origin) expressed in mouse BaF3 cells assessed as inhibition of cell growth incubated for 72 hrs by […] CellTiter96 viability analysis; conditions: for IC50: BaF3, 72 h
[8] = Inhibition of BCR-ABL F311L mutant (unknown origin) expressed in mouse BaF3 cells assessed as inhibition of cell growth incubated for 72 hrs by […] CellTiter96 viability analysis; conditions: for IC50: BaF3, 72 h
[9] = Inhibition of BCR-ABL F317L mutant (unknown origin) expressed in mouse BaF3 cells assessed as inhibition of cell growth incubated for 72 hrs by […] CellTiter96 viability analysis; conditions: for IC50: BaF3, 72 h
[10] = Inhibition of BCR-ABL M351T mutant (unknown origin) expressed in mouse BaF3 cells assessed as inhibition of cell growth incubated for 72 hrs by […] CellTiter96 viability analysis; conditions: for IC50: BaF3, 72 h
[11] = Inhibition of BCR-ABL F359V mutant (unknown origin) expressed in mouse BaF3 cells assessed as inhibition of cell growth incubated for 72 hrs by […] CellTiter96 viability analysis; conditions: for IC50: BaF3, 72 h
[12] = Inhibition of BCR-ABL V379l mutant (unknown origin) expressed in mouse BaF3 cells assessed as inhibition of cell growth incubated for 72 hrs by […] CellTiter96 viability analysis; conditions: for IC50: BaF3, 72 h
[13] = Inhibition of BCR-ABL L387M mutant (unknown origin) expressed in mouse BaF3 cells assessed as inhibition of cell growth incubated for 72 hrs by […] CellTiter96 viability analysis; conditions: for IC50: BaF3, 72 h
[14] = Inhibition of BCR-ABL H396P mutant (unknown origin) expressed in mouse BaF3 cells assessed as inhibition of cell growth incubated for 72 hrs by […] CellTiter96 viability analysis; conditions: for IC50: BaF3, 72 h
[15] = Inhibition of BCR-ABL H396R mutant (unknown origin) expressed in mouse BaF3 cells assessed as inhibition of cell growth incubated for 72 hrs by […] CellTiter96 viability analysis; conditions: for IC50: BaF3, 72 h
[16] = Cytotoxicity against mouse BaF3 cells assessed as reduction in cell proliferation incubated for 72 hrs by […] CellTiter96 viability analysis; format: toxicity
[17] = cells; conditions: Mus musculus, BaF3, 72 h
[18] = cells; conditions: Mus musculus, BaF3, 3 h
[19] = cells; conditions: Mus musculus, BaF3, 3 h; remark: listed apart in the source
[20] = cells; conditions: Mus musculus, BaF3, 3 h; remark: listed apart in the source
[21] = cells; conditions: Mus musculus, BaF3, 3 h; remark: listed apart in the source
[22] = cells; conditions: Mus musculus, BaF3, 3 h; remark: listed apart in the source
[23] = cells; conditions: Mus musculus, BaF3, 3 h; remark: listed apart in the source
[24] = cells; conditions: Mus musculus, BaF3, 3 h; remark: listed apart in the source
[25] = cells; conditions: Mus musculus, BaF3, 3 h; remark: listed apart in the source
[26] = cells; conditions: Mus musculus, BaF3, 3 h; remark: listed apart in the source
[27] = cells; conditions: Mus musculus, BaF3, 3 h; remark: listed apart in the source
[28] = cells; conditions: Mus musculus, BaF3, 3 h; remark: listed apart in the source
[29] = cells; conditions: Mus musculus, BaF3, 3 h; remark: listed apart in the source
[30] = Inhibition of BCR-ABL F311L mutant (unknown origin) expressed in mouse BaF3 cells assessed as inhibition of tyrosine phosphorylation incubated for 3 hrs by immunoblotting analysis; format: cell-based; conditions: BaF3, 3 h
[31] = Inhibition of BCR-ABL phosphorylation in mouse BaF3 cells incubated for 3 hrs by immunoblotting analysis; format: functional, cell-based
[32] = Inhibition of BCR-ABL V379l mutant (unknown origin) expressed in mouse BaF3 cells assessed as inhibition of tyrosine phosphorylation incubated for 3 hrs by immunoblotting analysis; format: cell-based; conditions: BaF3, 3 h
[33] = Inhibition of BCR-ABL L387M mutant (unknown origin) expressed in mouse BaF3 cells assessed as inhibition of tyrosine phosphorylation incubated for 3 hrs by immunoblotting analysis; format: cell-based; conditions: BaF3, 3 h
[34] = Inhibition of BCR-ABL H396P mutant (unknown origin) expressed in mouse BaF3 cells assessed as inhibition of tyrosine phosphorylation incubated for 3 hrs by immunoblotting analysis; format: cell-based; conditions: BaF3, 3 h
[35] = tested on: BaF3; experiment: Induction of apoptosis in mouse BaF3 cells expressing Bcr-Abl T315I mutant at 300 to 1500 nM incubated for 72 hrs by Annexin V-phycoerythrin and 7-amino-actinomycin D staining based PCA instrument analysis relative to control; format: functional, cell-based; conditions: dose 300-1500 nM
[36] = BaF3, time 72 hrs, condition chronic myelogenous leukemia

In the case of `Cc1nc(Nc2ncc(C(=O)Nc3c(C)cccc3Cl)s2)cc(N2CCN(CCO)CC2)n1` [DASATINIB ANHYDROUS], the IC50 [1] is reported as 1.3 nM, the IC90 [1, 36] is reported as 1.8 nM and the IC50 [2] is reported as 1.8 nM. For the same compound, the IC90 [2, 36] was 3 nM, the IC50 [3] was 3.4 nM and the IC90 [3, 36] was 11.2 nM. The IC50 [4] was 1.4 nM, the IC90 [4, 36] was 3 nM and the IC50 [5] was 1.3 nM. For the same compound, the IC90 [5, 36] was 3 nM, the IC50 [6] was 5.6 nM and the IC90 [6, 36] was 12.8 nM. The IC50 [7] was 11 nM, the IC90 [7, 36] was 27 nM and the IC50 [8] was 1.3 nM. It also gave an IC90 [8, 36] of 2.8 nM, an IC50 [9] of 7.4 nM and an IC90 [9, 36] of 15 nM. For the same compound, the IC50 [10] was 1.1 nM, the IC90 [10, 36] was 3 nM and the IC50 [11] was 2.2 nM. For the same compound, the IC90 [11, 36] was 4.8 nM, the IC50 [12] was 0.8 nM and the IC90 [12, 36] was 1.6 nM. The IC50 [13] was 2 nM, the IC90 [13, 36] was 4 nM and the IC50 [14] was 0.6 nM. For the same compound, the IC90 [14, 36] was 1.2 nM, the IC50 [15] was 1.3 nM and the IC90 [15, 36] was 2.7 nM. The IC50 at 72 h [16] was greater than 200 nM, the IC50 [17] was greater than 200 nM and the IC50 [18] was greater than 1000 nM. It also gave an IC50 [19] of less than 10 nM, an IC50 [20] of 10 nM and an IC50 [21] of less than 10 nM. For the same compound, the IC50 [22] was less than 10 nM, the IC50 [23] was less than 10 nM and the IC50 [24] was 10 nM. It also gave an IC50 [25] of less than 10 nM, an IC50 [26] of less than 10 nM and an IC50 [27] of less than 10 nM. It also gave an IC50 [28] of 10 nM and an IC50 [29] of less than 10 nM.
With `Cc1ccc(NC(=O)c2ccc(CN3CCN(C)CC3)cc2)cc1Nc1nccc(-c2cccnc2)n1` [IMATINIB] the IC50 [1] was 2000 nM, the IC50 [2] was 1350 nM and the IC50 [3] was 1320 nM. It also gave an IC50 [4] of 3480 nM, an IC50 [5] greater than 6400 nM and an IC50 [6] of 5200 nM. For the same compound, the IC50 [7] was greater than 6400 nM, the IC50 [8] was 480 nM and the IC50 [9] was 1050 nM. The IC50 [10] was 880 nM, the IC50 [11] was 1820 nM and the IC50 [12] was 1630 nM. For the same compound, the IC50 [13] was 1000 nM, the IC50 [14] was 850 nM and the IC50 [15] was 1750 nM. For the same compound, the IC50 at 72 h [16] was greater than 6400 nM, the IC50 [30] was 600 nM and the IC50 [31] was “Not Active”. For the same compound, the IC50 [32] was 800 nM, the IC50 [33] was 2700 nM and the IC50 [34] was 2700 nM. The Activity [35] was “inactive”, the IC50 [17] was greater than 6400 nM and the IC50 [18] was greater than 5000 nM. It also gave an IC50 [19] of 500 nM, an IC50 [20] of 1000 nM and an IC50 [21] of 1500 nM. It also gave an IC50 [22] of 4200 nM, an IC50 [23] greater than 5000 nM and an IC50 [24] of 5000 nM. It also gave an IC50 [25] greater than 5000 nM, an IC50 [26] of 400 nM and an IC50 [27] of 500 nM. The IC50 [28] was 3100 nM and the IC50 [29] was 1000 nM.
